In ChEMBL document CHEMBL1145498, “A systematic interaction map of validated kinase inhibitors with Ser/Thr kinases” (Proc Natl Acad Sci U S A, 2007):

Legend:
[1] = target: 5'-AMP-activated protein kinase catalytic subunit alpha-2 (Homo sapiens) (UniProt P54646)
[2] = target: Calcium/calmodulin-dependent protein kinase type II subunit alpha (Homo sapiens) (UniProt Q9UQM7)
[3] = target: Calcium/calmodulin-dependent protein kinase type II subunit beta (Homo sapiens) (UniProt Q13554)
[4] = target: Calcium/calmodulin-dependent protein kinase type II subunit delta (Homo sapiens) (UniProt Q13557)
[5] = target: Calcium/calmodulin-dependent protein kinase type II subunit gamma (Homo sapiens) (UniProt Q13555)
[6] = target: Cyclin-dependent kinase 2 (Homo sapiens, UniProt P24941)
[7] = target: Cyclin-dependent kinase 6 (Homo sapiens) (UniProt Q00534)
[8] = target: Cyclin-dependent kinase-like 1 (Homo sapiens) (UniProt Q00532)
Cyclin-dependent kinase-like 1 (Homo sapiens), sequence (Q00532 whole entry): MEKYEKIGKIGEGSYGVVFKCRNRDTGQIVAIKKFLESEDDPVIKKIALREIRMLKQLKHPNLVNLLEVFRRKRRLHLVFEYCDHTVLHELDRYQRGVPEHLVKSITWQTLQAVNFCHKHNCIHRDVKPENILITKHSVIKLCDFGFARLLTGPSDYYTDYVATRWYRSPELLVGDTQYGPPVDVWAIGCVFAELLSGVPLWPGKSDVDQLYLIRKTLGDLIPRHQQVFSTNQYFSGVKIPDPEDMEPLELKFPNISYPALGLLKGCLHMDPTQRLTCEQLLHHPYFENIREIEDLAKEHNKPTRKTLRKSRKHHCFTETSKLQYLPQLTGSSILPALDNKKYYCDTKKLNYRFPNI

[9] = target: Serine/threonine-protein kinase Chk2 (Homo sapiens, UniProt O96017)
[10] = target: Dual specificity protein kinase CLK1 (Homo sapiens) (UniProt P49759)
Dual specificity protein kinase CLK1 (Homo sapiens), sequence (P49759 whole entry, looked up, canonical isoform): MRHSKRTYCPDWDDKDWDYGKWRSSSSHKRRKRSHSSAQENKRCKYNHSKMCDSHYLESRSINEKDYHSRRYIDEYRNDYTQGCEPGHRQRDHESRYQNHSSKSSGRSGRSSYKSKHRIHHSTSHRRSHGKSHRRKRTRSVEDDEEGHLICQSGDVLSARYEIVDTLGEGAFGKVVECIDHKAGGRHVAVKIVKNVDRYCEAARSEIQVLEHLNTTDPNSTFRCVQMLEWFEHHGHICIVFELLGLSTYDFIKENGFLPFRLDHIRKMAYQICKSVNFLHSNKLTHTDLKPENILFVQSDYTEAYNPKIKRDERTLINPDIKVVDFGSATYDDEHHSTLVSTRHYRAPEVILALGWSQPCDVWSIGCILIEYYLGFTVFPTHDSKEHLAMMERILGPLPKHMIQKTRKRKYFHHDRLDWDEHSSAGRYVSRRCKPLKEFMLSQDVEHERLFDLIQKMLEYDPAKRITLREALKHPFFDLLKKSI

[11] = target: Casein kinase I isoform gamma-2 (Homo sapiens) (UniProt P78368)
Casein kinase I isoform gamma-2 (Homo sapiens), sequence (P78368 whole entry, looked up, canonical isoform): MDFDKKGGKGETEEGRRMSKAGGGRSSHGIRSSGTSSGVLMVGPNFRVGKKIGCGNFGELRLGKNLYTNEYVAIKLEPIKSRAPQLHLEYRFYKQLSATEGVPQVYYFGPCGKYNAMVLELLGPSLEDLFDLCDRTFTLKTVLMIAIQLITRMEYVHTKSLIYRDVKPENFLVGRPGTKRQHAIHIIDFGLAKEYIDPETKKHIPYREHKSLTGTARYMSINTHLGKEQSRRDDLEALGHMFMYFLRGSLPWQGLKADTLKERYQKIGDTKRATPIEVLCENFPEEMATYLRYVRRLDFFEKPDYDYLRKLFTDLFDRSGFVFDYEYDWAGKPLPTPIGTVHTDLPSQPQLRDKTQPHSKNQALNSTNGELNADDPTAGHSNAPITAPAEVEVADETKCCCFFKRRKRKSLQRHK

[12] = target: Casein kinase I isoform gamma-3 (Homo sapiens) (UniProt Q9Y6M4)
Casein kinase I isoform gamma-3 (Homo sapiens), sequence (Q9Y6M4 whole entry, looked up, canonical isoform): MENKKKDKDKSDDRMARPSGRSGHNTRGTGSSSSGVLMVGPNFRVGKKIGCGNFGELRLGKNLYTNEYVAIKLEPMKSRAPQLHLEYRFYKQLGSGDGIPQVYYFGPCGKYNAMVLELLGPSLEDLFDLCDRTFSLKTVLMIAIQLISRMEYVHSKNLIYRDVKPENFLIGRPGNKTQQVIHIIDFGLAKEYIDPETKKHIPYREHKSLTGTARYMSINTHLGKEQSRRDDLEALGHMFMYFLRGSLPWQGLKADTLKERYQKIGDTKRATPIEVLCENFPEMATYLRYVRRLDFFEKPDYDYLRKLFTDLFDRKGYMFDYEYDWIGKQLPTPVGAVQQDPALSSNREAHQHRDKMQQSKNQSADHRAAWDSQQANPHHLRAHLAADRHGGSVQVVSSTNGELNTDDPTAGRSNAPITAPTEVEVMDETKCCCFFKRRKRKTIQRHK

[13] = target: Death-associated protein kinase 3 (Homo sapiens) (UniProt O43293)
[14] = target: Tyrosine-protein kinase JAK1 (Homo sapiens) (UniProt P23458)
Tyrosine-protein kinase JAK1 (Homo sapiens), sequence (P23458 whole entry): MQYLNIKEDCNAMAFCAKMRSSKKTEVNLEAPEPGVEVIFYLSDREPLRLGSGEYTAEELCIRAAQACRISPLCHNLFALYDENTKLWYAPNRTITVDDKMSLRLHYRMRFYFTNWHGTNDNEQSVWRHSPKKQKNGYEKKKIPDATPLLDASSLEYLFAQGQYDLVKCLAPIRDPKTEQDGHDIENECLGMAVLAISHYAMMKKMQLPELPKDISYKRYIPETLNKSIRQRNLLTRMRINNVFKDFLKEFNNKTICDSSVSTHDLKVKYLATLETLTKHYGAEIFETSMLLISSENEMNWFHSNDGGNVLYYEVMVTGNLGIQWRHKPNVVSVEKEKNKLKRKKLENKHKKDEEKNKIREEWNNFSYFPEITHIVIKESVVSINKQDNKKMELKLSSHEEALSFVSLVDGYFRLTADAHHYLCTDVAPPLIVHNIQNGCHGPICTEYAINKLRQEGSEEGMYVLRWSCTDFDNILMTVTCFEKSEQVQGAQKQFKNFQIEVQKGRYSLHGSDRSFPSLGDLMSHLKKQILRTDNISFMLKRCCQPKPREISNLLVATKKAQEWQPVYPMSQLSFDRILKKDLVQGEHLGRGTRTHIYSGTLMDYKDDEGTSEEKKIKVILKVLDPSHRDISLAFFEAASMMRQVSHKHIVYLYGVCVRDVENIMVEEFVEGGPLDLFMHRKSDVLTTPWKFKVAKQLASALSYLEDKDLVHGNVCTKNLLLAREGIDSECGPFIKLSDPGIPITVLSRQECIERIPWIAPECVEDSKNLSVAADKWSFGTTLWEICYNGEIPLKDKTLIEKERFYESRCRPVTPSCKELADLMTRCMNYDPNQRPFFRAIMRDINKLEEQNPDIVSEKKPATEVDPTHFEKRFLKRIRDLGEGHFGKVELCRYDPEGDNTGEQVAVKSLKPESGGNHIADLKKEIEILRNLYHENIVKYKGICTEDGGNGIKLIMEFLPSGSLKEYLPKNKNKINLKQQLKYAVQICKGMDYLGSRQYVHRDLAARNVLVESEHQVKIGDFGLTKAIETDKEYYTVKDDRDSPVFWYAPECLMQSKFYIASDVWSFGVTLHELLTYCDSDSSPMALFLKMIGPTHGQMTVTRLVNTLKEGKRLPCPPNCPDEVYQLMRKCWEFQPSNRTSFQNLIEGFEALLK

[15] = target: Dual specificity mitogen-activated protein kinase kinase 2 (Homo sapiens, UniProt P36507)
[16] = target: T1, Dual specificity mitogen-activated protein kinase kinase 6 (Homo sapiens) (UniProt P52564)
T1 sequence (whole entry): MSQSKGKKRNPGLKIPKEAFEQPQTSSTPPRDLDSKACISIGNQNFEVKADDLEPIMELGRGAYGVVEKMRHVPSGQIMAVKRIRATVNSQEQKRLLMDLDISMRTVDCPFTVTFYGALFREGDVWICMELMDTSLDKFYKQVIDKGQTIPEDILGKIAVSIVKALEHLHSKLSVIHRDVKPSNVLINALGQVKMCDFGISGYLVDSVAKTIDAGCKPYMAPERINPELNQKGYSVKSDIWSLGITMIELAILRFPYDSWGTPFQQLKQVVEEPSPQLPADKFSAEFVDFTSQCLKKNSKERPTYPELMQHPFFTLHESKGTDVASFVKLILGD

[17] = target: Mitogen-activated protein kinase 3 (Homo sapiens, UniProt P27361)
[18] = target: Serine/threonine-protein kinase 26 (Homo sapiens) (UniProt Q9P289)
[19] = target: Serine/threonine-protein kinase OSR1 (Homo sapiens) (UniProt O95747)
[20] = target: Serine/threonine-protein kinase PAK 5 (Homo sapiens) (UniProt Q9P286)
[21] = target: Cyclin-dependent kinase 16 (Homo sapiens) (UniProt Q00536)
Cyclin-dependent kinase 16 (Homo sapiens), sequence (Q00536 whole entry): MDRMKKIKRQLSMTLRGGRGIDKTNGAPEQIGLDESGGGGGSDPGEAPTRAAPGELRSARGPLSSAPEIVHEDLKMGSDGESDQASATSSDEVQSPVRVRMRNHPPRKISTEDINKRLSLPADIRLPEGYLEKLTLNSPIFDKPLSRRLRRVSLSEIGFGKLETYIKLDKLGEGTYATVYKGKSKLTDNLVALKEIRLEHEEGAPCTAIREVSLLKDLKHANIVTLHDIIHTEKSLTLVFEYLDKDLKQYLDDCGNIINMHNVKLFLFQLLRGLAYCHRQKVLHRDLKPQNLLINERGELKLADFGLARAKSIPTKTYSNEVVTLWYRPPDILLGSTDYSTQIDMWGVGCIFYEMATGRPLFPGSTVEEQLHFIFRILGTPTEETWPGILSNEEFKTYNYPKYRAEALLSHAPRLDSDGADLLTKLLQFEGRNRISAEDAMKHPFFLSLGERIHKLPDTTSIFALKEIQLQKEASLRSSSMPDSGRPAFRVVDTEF

[22] = target: Serine/threonine-protein kinase pim-3 (Homo sapiens) (UniProt Q86V86)
[23] = target: Serine/threonine-protein kinase PLK1 (Homo sapiens) (UniProt P53350)
Serine/threonine-protein kinase PLK1 (Homo sapiens), sequence (P53350 whole entry): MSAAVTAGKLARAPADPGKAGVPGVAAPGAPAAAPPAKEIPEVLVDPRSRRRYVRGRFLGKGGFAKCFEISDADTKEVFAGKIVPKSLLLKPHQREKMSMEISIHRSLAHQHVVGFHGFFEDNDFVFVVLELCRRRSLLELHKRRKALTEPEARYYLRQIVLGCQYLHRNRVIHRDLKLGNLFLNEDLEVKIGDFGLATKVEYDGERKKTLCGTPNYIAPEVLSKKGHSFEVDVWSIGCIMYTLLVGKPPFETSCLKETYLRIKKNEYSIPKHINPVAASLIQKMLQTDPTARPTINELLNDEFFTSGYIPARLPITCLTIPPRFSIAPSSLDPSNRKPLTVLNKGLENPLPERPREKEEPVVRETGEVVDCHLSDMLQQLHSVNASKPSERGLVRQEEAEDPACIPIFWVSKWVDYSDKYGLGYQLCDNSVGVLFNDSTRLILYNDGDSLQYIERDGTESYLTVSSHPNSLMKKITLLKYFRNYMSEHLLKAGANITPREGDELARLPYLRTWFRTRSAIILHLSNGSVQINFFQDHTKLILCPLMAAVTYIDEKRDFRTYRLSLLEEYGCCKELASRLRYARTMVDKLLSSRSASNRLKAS

[24] = target: Serine/threonine-protein kinase RIO2 (Homo sapiens) (UniProt Q9BVS4)
[25] = target: Ribosomal protein S6 kinase alpha-3 (Homo sapiens) (UniProt P51812)
Ribosomal protein S6 kinase alpha-3 (Homo sapiens), sequence (P51812 whole entry): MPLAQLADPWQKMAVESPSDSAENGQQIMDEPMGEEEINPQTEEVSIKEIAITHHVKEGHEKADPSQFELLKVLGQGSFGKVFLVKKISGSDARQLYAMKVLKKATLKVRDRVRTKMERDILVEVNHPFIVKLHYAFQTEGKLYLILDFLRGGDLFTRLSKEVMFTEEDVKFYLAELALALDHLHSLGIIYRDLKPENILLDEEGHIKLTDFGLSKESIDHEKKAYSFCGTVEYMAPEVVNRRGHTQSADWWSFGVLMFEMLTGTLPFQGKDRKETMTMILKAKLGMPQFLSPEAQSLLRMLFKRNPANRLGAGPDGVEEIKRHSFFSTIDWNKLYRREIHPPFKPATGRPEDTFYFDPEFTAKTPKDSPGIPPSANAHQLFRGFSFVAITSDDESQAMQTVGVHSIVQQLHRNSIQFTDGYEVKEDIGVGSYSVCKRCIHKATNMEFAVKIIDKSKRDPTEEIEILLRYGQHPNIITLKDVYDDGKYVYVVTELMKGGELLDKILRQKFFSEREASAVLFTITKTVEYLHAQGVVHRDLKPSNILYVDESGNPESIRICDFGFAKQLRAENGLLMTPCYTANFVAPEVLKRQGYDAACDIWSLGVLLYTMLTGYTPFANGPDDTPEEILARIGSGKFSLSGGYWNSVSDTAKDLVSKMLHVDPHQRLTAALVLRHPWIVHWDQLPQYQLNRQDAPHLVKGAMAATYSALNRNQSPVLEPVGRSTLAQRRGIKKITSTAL

[26] = target: STE20-like serine/threonine-protein kinase (Homo sapiens) (UniProt Q9H2G2)
[27] = target: Serine/threonine-protein kinase 38 (Homo sapiens) (UniProt Q15208)
[28] = target: T2, Serine/threonine-protein kinase VRK1 (Homo sapiens) (UniProt Q99986)
T2 sequence (whole entry): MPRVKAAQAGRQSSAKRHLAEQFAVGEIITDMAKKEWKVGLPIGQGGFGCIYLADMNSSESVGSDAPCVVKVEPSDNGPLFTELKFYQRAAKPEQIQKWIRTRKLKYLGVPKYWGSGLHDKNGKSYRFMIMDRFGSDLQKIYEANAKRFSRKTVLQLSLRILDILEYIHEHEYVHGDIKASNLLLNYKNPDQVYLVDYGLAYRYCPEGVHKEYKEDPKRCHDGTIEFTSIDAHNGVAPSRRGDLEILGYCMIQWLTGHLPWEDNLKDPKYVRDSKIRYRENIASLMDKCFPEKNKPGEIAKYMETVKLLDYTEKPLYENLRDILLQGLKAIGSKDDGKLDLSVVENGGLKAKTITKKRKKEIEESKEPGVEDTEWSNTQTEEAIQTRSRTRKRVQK

[29] = target: T3, Serine/threonine-protein kinase VRK3 (Homo sapiens) (UniProt Q8IV63)
T3 sequence (whole entry): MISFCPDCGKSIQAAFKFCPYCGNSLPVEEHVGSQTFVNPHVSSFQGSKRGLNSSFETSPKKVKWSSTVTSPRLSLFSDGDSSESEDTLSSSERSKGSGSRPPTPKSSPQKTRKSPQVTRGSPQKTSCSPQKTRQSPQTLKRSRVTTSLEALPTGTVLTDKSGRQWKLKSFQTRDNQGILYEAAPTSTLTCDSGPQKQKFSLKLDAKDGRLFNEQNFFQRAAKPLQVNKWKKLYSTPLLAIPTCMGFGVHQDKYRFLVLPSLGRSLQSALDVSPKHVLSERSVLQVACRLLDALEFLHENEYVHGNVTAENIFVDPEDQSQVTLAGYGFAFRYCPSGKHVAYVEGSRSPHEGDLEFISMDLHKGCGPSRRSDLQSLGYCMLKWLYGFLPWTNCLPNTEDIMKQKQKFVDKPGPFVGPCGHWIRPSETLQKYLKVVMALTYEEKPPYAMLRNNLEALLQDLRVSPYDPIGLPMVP

| SMILES | ΔTm [1] | ΔTm [2] | ΔTm [3] | ΔTm [4] | ΔTm [5] | ΔTm [6] | ΔTm [7] | ΔTm [8] | ΔTm [9] | ΔTm [10] | ΔTm [11] | ΔTm [12] | ΔTm [13] | ΔTm [14] | ΔTm [15] | ΔTm [16] | ΔTm [17] | ΔTm [18] | ΔTm [19] | ΔTm [20] | also measured |
| --- | --- | --- | --- | --- | --- | --- | --- | --- | --- | --- | --- | --- | --- | --- | --- | --- | --- | --- | --- | --- | --- |
| CC(C)(C)n1nc(-c2cccc3ccccc23)c2c(N)ncnc21 | 0 °C | 0.3 °C | 0.2 °C | -0.1 °C | 0.2 °C | 0.1 °C | -0.3 °C | -0.5 °C | 0.3 °C | 1.1 °C | 0.5 °C | 0.5 °C | -0.8 °C | -0.1 °C | 3.2 °C | 3.5 °C | 0.8 °C | -4.9 °C | 1.1 °C | 1 °C | ΔTm [21]: -0.4 °C; ΔTm [22]: 0.7 °C; ΔTm [23]: 0 °C; ΔTm [24]: 0.4 °C; ΔTm [25]: 0.3 °C; ΔTm [26]: 6.1 °C; ΔTm [27]: 0.4 °C; ΔTm [28]: 0.7 °C; ΔTm [29]: 0.2 °C |
| COc1cccc(-c2cc(=O)c3ccccc3o2)c1N | -0.5 °C | -0.5 °C | 0 °C | 0.3 °C | 0.1 °C | 0.3 °C | 0.1 °C | 0 °C | -0.5 °C | 0.2 °C | 0.5 °C | 0.1 °C | -0.5 °C | 1 °C | 0.1 °C | -0.1 °C | 0 °C | -0.1 °C | 0.2 °C | -0.2 °C | ΔTm [21]: -0.2 °C; ΔTm [22]: 0.7 °C; ΔTm [23]: 0.3 °C; ΔTm [24]: 0.5 °C; ΔTm [25]: -0.2 °C; ΔTm [26]: -0.1 °C; ΔTm [27]: 0.2 °C; ΔTm [28]: 0.2 °C; ΔTm [29]: 0.6 °C |
| COc1cc(C[C@H]2C(=O)OC[C@@H]2Cc2ccc(OC)c(OC)c2)ccc1O [ARCTIGENIN] | -0.9 °C | 0.1 °C | 0.6 °C | 0.2 °C | 0.3 °C | 0.6 °C | 0.4 °C | -0.1 °C | -0.3 °C | -1 °C | 0.1 °C | 0.2 °C | -0.3 °C | -0.1 °C | 0 °C | 0.3 °C | -0.4 °C | -0.3 °C | -0.1 °C | 0.1 °C | ΔTm [21]: -0.1 °C; ΔTm [22]: 0.6 °C; ΔTm [23]: 0.1 °C; ΔTm [24]: -0.2 °C; ΔTm [25]: -0.1 °C; ΔTm [26]: -0.5 °C; ΔTm [27]: 0.5 °C; ΔTm [28]: 0.7 °C; ΔTm [29]: 0.4 °C |
| O=C1NC(=O)C(c2cn(CCCn3ccnc3)c3ccccc23)=C1Nc1ccccc1 | 0.4 °C | 1.7 °C | 0.7 °C | 0.1 °C | 0.9 °C | 0.4 °C | 0.9 °C | 0.3 °C | 1.5 °C | 5.8 °C | 1 °C | 0.5 °C | 1.3 °C | 1.1 °C | 0.4 °C | 0.9 °C | -0.1 °C | 2 °C | 0.2 °C | 0.1 °C | ΔTm [21]: 0.6 °C; ΔTm [22]: -0.3 °C; ΔTm [23]: 1.2 °C; ΔTm [24]: 6.1 °C; ΔTm [25]: 6.3 °C; ΔTm [26]: 4.8 °C; ΔTm [27]: 0.7 °C; ΔTm [28]: 0.6 °C; ΔTm [29]: 1.6 °C |
| O=C1Nc2ccccc2/C1=C/c1cnc[nH]1 | 3.3 °C | 0.7 °C | 0.8 °C | -0.3 °C | 1.2 °C | 6.6 °C | 4.4 °C | 3.7 °C | 3 °C | 3.3 °C | 1.6 °C | 1.5 °C | 1.6 °C | 6.9 °C | 2 °C | 4.7 °C | 2.1 °C | 4.3 °C | 2.4 °C | 0.7 °C | ΔTm [21]: 4.7 °C; ΔTm [22]: 3.3 °C; ΔTm [23]: 1.3 °C; ΔTm [24]: 1.3 °C; ΔTm [25]: 1 °C; ΔTm [26]: 3.3 °C; ΔTm [27]: 2.9 °C; ΔTm [28]: 0.5 °C; ΔTm [29]: 0.1 °C |
| O=C(O)c1cc(N(Cc2ccccc2O)Cc2cc(O)ccc2O)ccc1O [LAVENDUSTIN A] | -1.1 °C | 1.3 °C | -0.1 °C | 0.3 °C | -0.1 °C | 1.3 °C | 0.4 °C | -0.3 °C | 0.8 °C | 0.5 °C | 0.6 °C | 0.8 °C | 0.8 °C | 0.4 °C | 0.5 °C | -1.1 °C | 0.3 °C | 2.1 °C | -0.1 °C | -0.5 °C | ΔTm [21]: 0 °C; ΔTm [22]: 0.4 °C; ΔTm [23]: 0.9 °C; ΔTm [24]: 0 °C; ΔTm [25]: 1.7 °C; ΔTm [26]: -0.7 °C; ΔTm [27]: 0.2 °C; ΔTm [28]: 0.3 °C; ΔTm [29]: 0.7 °C |
| CC(=O)O/N=C1/C(=C2/C(=O)Nc3cc(Br)ccc32)Nc2ccccc21 [6-BROMOINDIRUBIN-3'-ACETOXIME] | 2 °C | 0.9 °C | 0.9 °C | -0.3 °C | 2.4 °C | 3.2 °C | 2.8 °C | 3.2 °C | 0.1 °C | -0.3 °C | 0.5 °C | 0.5 °C | -1.3 °C | 2.5 °C | 3.1 °C | 0.8 °C | 0 °C | -0.4 °C | -1.1 °C | 0.9 °C | ΔTm [21]: 2.1 °C; ΔTm [22]: 1.1 °C; ΔTm [23]: 0.4 °C; ΔTm [24]: 1.7 °C; ΔTm [25]: 4.5 °C; ΔTm [26]: 2.1 °C; ΔTm [27]: 0.9 °C; ΔTm [28]: 0.3 °C; ΔTm [29]: 0.7 °C |
